Patent publication US9856279B2 (AGIOS PHARMACEUTICALS, INC, priority 2011, dated 2018)
pIC50: −log10 of the molar value.

Columns and labels:
HT1080 cells = assay: Cellular assay for IDH1m inhibitors: inhibition of 2-HG production (LC-MS, 48 hours) in HT1080 cells; format: cell-based; conditions: Homo sapiens, HT-1080; inhibition of 2-HG production, HT1080 cells; read-out: HT1080 IC50
How it was run: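 Read-out: 2-HG in culture medium by LC-MS after 48 h compound exposure; IC50 = 50% reduction vs DMSO control. Cells plated 5000/well in DMEM/10% FBS, 37 °C, 5% CO2; DMSO 0.2% final.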

U87MG cells = assay: Cellular assay for IDH1m inhibitors: inhibition of 2-HG production (LC-MS, 48 hours) in U87MG cells; format: cell-based; conditions: Homo sapiens, U-87 MG, inhibition of 2-HG production, U87R132H cells; read-out: U87R132H IC50
Protocol: Cells (e.g., HT1080 or U87MG) and are grown in T125 flasks in DMEM containing 10% FBS, 1× penicillin/streptomycin and 500 ug/mL G418. They are harvested by trypsin and seeded into 96 well white bottom plates at a density of 5000 cell/well in 100 ul/well in DMEM with 10% FBS. No cells are plates in columns 1 and 12. Cells are incubated overnight at 37° C. in 5% CO2. The next day compounds are made up at 2× concentration and 100 ul are added to each cell well. The final concentration of DMSO is 0.2% and the DMSO control wells are plated in row G. The plates are then placed in the incubator for 48 hours. At 48 hours, 100 μl of media is removed from each well and analyzed by LC-MS for 2-HG concentrations. The cell plate is placed back in the incubator for another 24 hours. At 72 hours post compound addition, 10 mL/plate of Promega Cell Titer Glo reagent is thawed and mixed. The cell plate is removed from the incubator and allowed to equilibrate to room temperature. Then 100 ul of reagent is added to each well of media. The cell plate is then placed on an orbital shaker for 10 minutes and then allowed to sit at room temperature for 20 minutes. The plate is then read for luminescence with an integration time of 500 ms.
The IC50 for inhibition of 2-HG production (concentration of test compound to reduce 2HG production by 50% compared to control) in these two cell lines for various compounds of formula I is set forth in Table 4 above.

IDH1 R132H = IDH1 R132H (Homo sapiens, UniProt O75874, R132H); assay: Assay for IDH1 R132H inhibitors (NADPH/aKG, resazurin detection); format: biochemical; conditions: enzyme assay of Example 12; read-out: IDH1R132H IC50
How it was run: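 Read-out is resorufin fluorescence (Ex544/Em590) 5 min after adding a 30 μM resazurin detection mix. Before that, mutant enzyme (0.2 μg/ml in its mix) ran 50 min at room temperature with compound, 8 uM NADPH and 2 mM aKG (mix levels) in Tris pH 7.5 with NaCl, MgCl2, BSA.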

IDH1 R132H, sequence (O75874 whole entry R132H): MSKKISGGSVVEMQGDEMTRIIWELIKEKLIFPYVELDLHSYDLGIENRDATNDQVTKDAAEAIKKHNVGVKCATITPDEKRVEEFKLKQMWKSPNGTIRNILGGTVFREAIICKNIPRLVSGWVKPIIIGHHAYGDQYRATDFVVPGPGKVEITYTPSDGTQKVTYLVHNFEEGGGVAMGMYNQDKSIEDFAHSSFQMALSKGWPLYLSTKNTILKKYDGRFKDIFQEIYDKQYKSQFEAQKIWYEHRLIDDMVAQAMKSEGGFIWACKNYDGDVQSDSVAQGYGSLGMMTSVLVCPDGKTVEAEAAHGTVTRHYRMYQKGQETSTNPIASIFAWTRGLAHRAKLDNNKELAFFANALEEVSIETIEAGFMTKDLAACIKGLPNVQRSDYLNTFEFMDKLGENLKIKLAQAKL

pIC50 (HT1080 cells) | pIC50 (U87MG cells) | pIC50 (IDH1 R132H) | SMILES
5.00 to 6.00 | 5.00 to 6.00 | 6.00 to 6.30 | CCc1cc(-c2cc(C#N)c(N3CCN(C(=O)CCOC)[C@H](C)C3)nc2C2CC2)ccn1 [Compound 426, (R)-2-cyclopropyl-2′-ethyl-6-(4-(3-methoxypropanoyl)-3-methylpiperazin-1-yl)-3,4′-bipyridine-5-carbonitrile]
> 6.30 | > 6.30 | > 6.30 | C=Cc1cc(Nc2cc(C#N)c(N3CCN(C(=O)CCOC)[C@H](C)C3)nc2C2CC2)ccn1 [Compound 642, (R)-6-cyclopropyl-2-(4-(3-methoxypropanoyl)-3-methylpiperazin-1-yl)-5-((2-vinylpyridin-4-yl)amino)nicotinonitrile]
> 6.30 | > 6.30 | > 6.30 | C=Cc1cc(-c2cc(C#N)c(N3CCN(C(=O)CCOC)[C@H](C)C3)nc2C2CC2)cnn1 [Compound 615, (R)-6-cyclopropyl-2-(4-(3-methoxypropanoyl)-3-methylpiperazin-1-yl)-5-(6-vinylpyridazin-4-yl)nicotinonitrile]
> 6.30 | > 6.30 | > 6.30 | COCCC(=O)N1CCN(c2nc(C3CC3)c(-c3ccc(CNS(C)(=O)=O)cc3)c(C)c2C#N)C[C@H]1C [Compound 330, (R)—N-(4-{5-cyano-2-cyclopropyl-6-[4-(3-methoxy-propionyl)-3-methyl-piperazin-1-yl]-4-methyl-pyridin-3-yl}-benzyl)-methanesulfonamide]
5.00 to 6.00 | 6.00 to 6.30 | > 6.30 | COCCC(=O)N1CCN(c2nc(C3CC3)c(-c3cccc4[nH]ncc34)cc2C#N)C[C@H]1C [Compound 438, (R)-6-cyclopropyl-5-(1H-indazol-4-yl)-2-[4-(3-methoxy-propionyl)-3-methyl-piperazin-1-yl]-nicotinonitrile]
5.00 to 6.00 | 6.00 to 6.30 | > 6.30 | COCCC(=O)N1CCN(c2nc(C3CC3)c(-c3cccc(-c4cc[nH]n4)c3)cc2C#N)C[C@H]1C [Compound 363, (R)-6-cyclopropyl-2-[4-(3-methoxy-propionyl)-3-methyl-piperazin-1-yl]-5-[3-(1H-pyrazol-3-yl)-phenyl]-nicotinonitrile]
> 6.30 | > 6.30 | > 6.30 | C=Cc1cc(-c2c(C3CC3)nc(N3CCN(C(=O)CCC4CCO4)[C@H](C4CC4)C3)c(C#N)c2C)ccn1 (stereo partly drawn) [Compound 803, 2-cyclopropyl-6-((3R)-3-cyclopropyl-4-(3-(oxetan-2-yl)propanoyl)piperazin-1-yl)-4-methyl-2′-vinyl-[3,4′-bipyridine]-5-carbonitrile]
> 6.30 | > 6.30 | > 6.30 | COCCC(=O)N1CCN(c2nc(C3CC3)c(-c3cccc4cnccc34)cc2C#N)C[C@H]1C1CC1 [Compound 409, (R)-6-cyclopropyl-2-(3-cyclopropyl-4-(3-methoxypropanoyl)piperazin-1-yl)-5-(isoquinolin-5-yl)nicotinonitrile]
> 6.30 | > 6.30 | > 6.30 | COCCC(=O)N1CCN(c2nc(C3CC3)c(Oc3ccnc(Cl)c3)cc2C#N)C[C@H]1C1CC1 [Compound 695, (R)-5-((2-chloropyridin-4-yl)oxy)-6-cyclopropyl-2-(3-cyclopropyl-4-(3-methoxypropanoyl)piperazin-1-yl)nicotinonitrile]
> 6.30 | > 6.30 | > 6.30 | C=Cc1cnnc(-c2cc(C#N)c(N3CCN(C(=O)C4CC4)[C@H](C4CC4)C3)nc2C2CC2)c1 [Compound 696, (R)-2-(4-(cyclopropanecarbonyl)-3-cyclopropylpiperazin-1-yl)-6-cyclopropyl-5-(5-vinylpyridazin-3-yl)nicotinonitrile]
5.00 to 6.00 | 5.00 to 6.00 | 6.00 to 6.30 | COCCC(=O)N1CCN(c2nc(C3CC3)c(OCc3ccccn3)cc2C#N)C[C@H]1C [Compound 279, (R)-6-cyclopropyl-2-(4-(3-methoxypropanoyl)-3-methylpiperazin-1-yl)-5-(pyridin-2-ylmethoxy)nicotinonitrile]
5.00 to 6.00 | 5.00 to 6.00 | 6.00 to 6.30 | COCCC(=O)N1CCN(c2nc(C(C)C)c(OCCNC(=O)OCc3ccccc3)cc2C#N)C[C@H]1C [Compound 272, (R)-benzyl 2-(5-cyano-2-isopropyl-6-(4-(3-methoxypropanoyl)-3-methylpiperazin-1-yl)pyridin-3-yloxy)ethylcarbamate]
5.00 to 6.00 | 5.00 to 6.00 | > 6.30 | C=CS(=O)(=O)N(c1cccc(-c2cc(C#N)c(N3CCN(C(=O)C4CC4)[C@H](C4CC4)C3)nc2C2CC2)c1)S(=O)(=O)C=C [Compound 452, (R)—N-(3-(5-cyano-6-(4-(cyclopropanecarbonyl)-3-cyclopropylpiperazin-1-yl)-2-cyclopropylpyridin-3-yl)phenyl)-N-(vinylsulfonyl)ethenesulfonamide]
> 6.30 | > 6.30 | > 6.30 | C=Cc1cc(-c2cc(C#N)c(N3CCN(C(=O)c4ccoc4)[C@H](C4CC4)C3)nc2C2CC2)ccn1 [Compound 546, (R)-2-cyclopropyl-6-(3-cyclopropyl-4-(furan-3-carbonyl)piperazin-1-yl)-2′-vinyl-3,4′-bipyridine-5-carbonitrile]
> 6.30 | > 6.30 | > 6.30 | C=CC(=O)N1CCC=C(c2c(C3CC3)nc(N3CCN(C(=O)CCO)[C@H](C(C)C)C3)c(C#N)c2C)C1 [Compound 762, (R)-1′-acryloyl-2-cyclopropyl-6-(4-(3-hydroxypropanoyl)-3-isopropylpiperazin-1-yl)-4-methyl-1′,2′,5′,6′-tetrahydro-[3,3′-bipyridine]-5-carbonitrile]
> 6.30 | > 6.30 | > 6.30 | C=Cc1cc(-c2cc(C#N)c(N3CCN(C(=O)CCO)[C@H](C)C3)nc2C2CC2)c2cccnc2n1 [Compound 625, (R)-6-cyclopropyl-2-(4-(3-hydroxypropanoyl)-3-methylpiperazin-1-yl)-5-(2-vinyl-1,8-naphthyridin-4-yl)nicotinonitrile]
> 6.30 | > 6.30 | > 6.30 | C=Cc1cc(-c2cc(C#N)c(N3CCN(C(=O)CCOC)[C@H](C4CC4)C3)nc2C2CC2)ccn1 [Compound 530, (R)-2-cyclopropyl-6-(3-cyclopropyl-4-(3-methoxypropanoyl)piperazin-1-yl)-2′-vinyl-3,4′-bipyridine-5-carbonitrile]
> 6.30 | > 6.30 | > 6.30 | C=Cc1ccc2c(-c3cc(C#N)c(N4CCN(C(=O)CCOC)[C@H](C)C4)nc3C3CC3)cccc2n1 [Compound 608, (R)-6-cyclopropyl-2-(4-(3-methoxypropanoyl)-3-methylpiperazin-1-yl)-5-(2-vinylquinolin-5-yl)nicotinonitrile]
5.00 to 6.00 | 6.00 to 6.30 | > 6.30 | COCCC(=O)N1CCN(c2nc(C3CC3)c(-c3ccc(S(N)(=O)=O)cc3)c(C)c2C#N)C[C@H]1C [Compound 393, (R)-4-{5-cyano-2-cyclopropyl-6-[4-(3-methoxy-propionyl)-3-methyl-piperazin-1-yl]-4-methyl-pyridin-3-yl}-benzenesulfonamide]
> 6.30 | > 6.30 | > 6.30 | C=Cc1ncc2c(-c3cc(C#N)c(N4CCN(C(=O)CCOC)[C@H](C)C4)nc3C3CC3)cccc2n1 [Compound 603, (R)-6-cyclopropyl-2-(4-(3-methoxypropanoyl)-3-methylpiperazin-1-yl)-5-(2-vinylquinazolin-5-yl)nicotinonitrile]
> 6.30 | > 6.30 | > 6.30 | C=Cc1cc(-c2cc(C#N)c(N3CCN(C(=O)CCC4CCCO4)[C@H](C4CC4)C3)nc2C2CC2)ccn1 (stereo partly drawn) [Compound 800, 2-cyclopropyl-6-((3R)-3-cyclopropyl-4-(3-(tetrahydrofuran-2-yl)propanoyl)piperazin-1-yl)-2′-vinyl-3,4′-bipyridine-5-carbonitrile]
6.00 to 6.30 | 6.00 to 6.30 | > 6.30 | COCCC(=O)N1CCN(c2nc(C3CC3)c(OCc3cccc(C#N)c3)cc2C#N)C[C@H]1C [Compound 294, (R)-5-(3-cyanobenzyloxy)-6-cyclopropyl-2-(4-(3-methoxypropanoyl)-3-methylpiperazin-1-yl)nicotinonitrile]
